Results published in US20150105252A1, “SUBSTITUTED PYRAZOLES AS HERBICIDES” (E I DU PONT DE NEMOURS AND COMPANY, priority 2013, published 2015).

How the values were obtained:
kochia [1] = assay: Test A postemergence; type: in vivo, Kochia scoparia
Summary of the method: (§1)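 Greenhouse test in loam soil/sand blend; compounds formulated in non-phytotoxic solvent with surfactant, applied as preemergence directed soil spray or postemergence to plants 2–10 cm tall at one- to two-leaf stage. Injury rated visually versus untreated controls after approximately 10 days on a 0 (no effect) to 100 (complete control) scale.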

blackgrass = assay: Test A postemergence; type: in vivo, Alopecurus myosuroides
Summary of the method: as §1

Italian ryegrass = assay: Test A postemergence; type: in vivo, Lolium multiflorum
Summary of the method: as §1

bromegrass, downy = assay: Test C preemergence; type: in vivo, Bromus tectorum; details: for Plant response rating (scale of 0 to 100), Bromegrass, Downy: Preemergence, 250 g ai/ha; for Bromegrass, Downy plant response rating / Plant response rating, Bromegrass, Downy: preemergence; for Plant response rating, Bromegrass, Downy: 62 g ai/ha, scale 0 to 100, 0 = no effect, 100 = complete control
Description: (§2) Seeds of plant species selected from blackgrass (Alopecurus myosuroides), ryegrass, Italian (Italian ryegrass, Lolium multiflorum), wheat (winter wheat, Triticum aestivum), galium (catchweed bedstraw, Galium aparine), corn (Zea mays), crabgrass, large (large crabgrass, Digitaria sanguinalis), foxtail, giant (giant foxtail, Setaria faberii), johnsongrass (Sorghum halepense), lambsquarters (Chenopodium album), morningglory (Ipomoea coccinea), nutsedge, yellow (yellow nutsedge, Cyperus esculentus), pigweed (redroot pigweed, Amaranthus retroflexus), ragweed (common ragweed, Ambrosia elation), soybean (Glycine max), barnyardgrass (Echinochloa crus-galli), oilseed rape (Brassica napus), waterhemp (common waterhemp, Amaranthus rudis), oat, wild (wild oat, Avena fatua), kochia (Kochia scoparia), Surinam grass (Brachiaria decumbens), foxtail, green (green foxtail, Setaria viridis), goosegrass (Eleusine indica), bromegrass, downy (downy bromegrass, Bromus tectorum), nightshade (eastern black nightshade, Solanum ptycanthum), cocklebur (common cocklebur, Xanthium strumarium), cupgrass, woolly (woolly cupgrass, Eriochloa villosa), bermudagrass (Cynodon dactylon), sunflower, (common oilseed sunflower, Helianthus annuus), Russian thistle (Salsola kali), and velvetleaf (Abutilon theophrasti) were planted into a blend of loam soil and sand and treated preemergence with test chemicals formulated in a non-phytotoxic solvent mixture which included a surfactant.
(§3) At the same time, plants selected from these crop and weed species and also chickweed (common chickweed, Stellaria media), canarygrass (littleseed canarygrass, Phalaris minor), and deadnettle (henbit deadnettle, Lamium amplexicaule), were planted in pots containing Redi-Earth® planting medium (Scotts Company, 14111 Scottslawn Road, Marysville, Ohio 43041) comprising spaghnum peat moss, vermiculite, wetting agent and starter nutrients and treated with postemergence applications of test chemicals formulated in the same manner. Plants ranged in height from 2 to 18 cm (1- to 4-leaf stage) for postemergence treatments. Treated plants and controls were maintained in a greenhouse for 13 to 15 days, after which time all species were compared to controls and visually evaluated. Plant response ratings, summarized in Table C, are based on a scale of 0 to 100 where 0 is no effect and 100 is complete control. A dash (-) response means no test result.

bermudagrass = assay: Test C preemergence; type: in vivo, Cynodon dactylon; details: for Plant response rating (scale of 0 to 100), Bermudagrass: Preemergence, 250 g ai/ha; for Bermudagrass plant response rating / Plant response rating, Bermudagrass: preemergence; for Plant response rating, Bermudagrass: 62 g ai/ha, scale 0 to 100, 0 = no effect, 100 = complete control
Description: as §2, §3

deadnettle = assay: Test C postemergence; type: in vivo, Lamium amplexicaule; details: for Deadnettle plant response rating: scale 0 to 100
Description: as §2, §3

kochia [2] = assay: Test F preemergence; type: in vivo, Kochia scoparia
Description: (§4) Seeds of plant species selected from corn (Zea mays), soybean (Glycine max), velvetleaf (Abutilon theophrasti), lambsquarters (Chenopodium album), wild poinsettia (Euphorbia heterophylla), pigweed, palmer (palmer pigweed, Amaranthus palmeri), common waterhemp (Amaranthus rudis), surinam grass (Brachiaria decumbens), large crabgrass (Digitaria sanguinalis), crabgrass, Brazil (Brazilian crabgrass, Digitaria horizontalis), fall panicum (Panicum dichotomiflorum), giant foxtail (Setaria faberii), green foxtail (Setaria viridis), goosegrass (Eleusine indica), johnsongrass (Sorghum halepense), common ragweed (Ambrosia elation), barnyardgrass (Echinochloa crus-galli), southern sandbur (Cenchrus echinatus), arrowleaf sida (Sida rhombifolia), Italian ryegrass (Lolium multiflorum), dayflower, VA (Virginia (VA) dayflower, Commelina virginica), field bindweed (Convolvulus arvensis), cocklebur (common cocklebur, Xanthium strumarium), morningglory (Ipomoea coccinea), nightshade (eastern black nightshade, Solanum ptycanthum), kochia (Kochia scoparia), yellow nutsedge (Cyperus esculentus), and hairy beggarticks (Bidens pilosa), were planted into a silt loam soil and treated preemergence with test chemicals formulated in a non-phytotoxic solvent mixture which included a surfactant.
(§5) At the same time, plants from these crop and weed species and also horseweed (Canada horseweed, Conyza canadensis), smartweed (ladysthumb smartweed, Polygonum persicaria), waterhemp_RES1, (ALS & Triazine resistant common waterhemp, Amaranthus rudis), and waterhemp_RES2, (ALS & HPPD resistant common waterhemp, Amaranthus rudis) were treated with postemergence applications of test chemicals formulated in the same manner. Plants ranged in height from 2 to 18 cm for postemergence treatments (1- to 4-leaf stage). Treated plants and controls were maintained in a greenhouse for 14 to 21 days, after which time all species were compared to controls and visually evaluated. Plant response ratings, summarized in Table F, are based on a scale of 0 to 100 where 0 is no effect and 100 is complete control. A dash (-) response means no test result.

soybean = assay: Test F preemergence; type: in vivo, Glycine max
Description: as §4, §5

arrowleaf sida = assay: Test F preemergence; type: in vivo, Sida rhombifolia
Description: as §4, §5

[3] = Postemergence, 500 g ai/ha, 0 to 100 scale (0 no effect, 100 complete control)
[4] = postemergence, 125 g ai/ha, about 10 days, visual rating on 0 to 100 scale (0 no effect, 100 complete control)
[5] = Postemergence, 125 g ai/ha, 0 to 100 scale, 0 no effect, 100 complete control
[6] = 31 g ai/ha, scale 0 to 100 (0 no effect, 100 complete control), 13 to 15 days
[7] = 125 g ai/ha, scale 0 to 100, 0 is no effect, 100 is complete control
[8] = postemergence, 250 g ai/ha, scale 0 to 100 (0 no effect, 100 complete control)
[9] = postemergence, 125 g ai/ha, scale 0 to 100, 0 no effect, 100 complete control
[10] = Preemergence, 31 g ai/ha, scale 0 to 100
[11] = Preemergence, 62 g ai/ha, scale 0 to 100
[12] = Preemergence, 125 g ai/ha, scale 0 to 100
[13] = preemergence, 8 g ai/ha, scale 0 to 100, 100 is complete control
[14] = preemergence, 16 g ai/ha, scale 0 to 100, 100 is complete control
[15] = Preemergence, 250 g ai/ha, scale 0 to 100

| Compound | Kochia plant response rating (kochia [1]; [3]) | Kochia plant response rating (kochia [1]; [4]) | Blackgrass plant response rating (blackgrass; [3]) | Blackgrass plant response rating (blackgrass; [4]) | Italian Ryegrass plant response rating (Italian ryegrass; [3]) | Italian Ryegrass plant response rating (Italian ryegrass; [4]) | Plant response rating (scale of 0 to 100), Bromegrass, Downy (bromegrass, downy) | Bromegrass, Downy plant response rating (bromegrass, downy; [6]) | Plant response rating, Bromegrass, Downy (bromegrass, downy; 13 to 15 days) | Bromegrass, Downy plant response rating (bromegrass, downy; [7]) | Plant response rating (scale of 0 to 100), Bermudagrass (bermudagrass) | Bermudagrass plant response rating (bermudagrass; [6]) | Plant response rating, Bermudagrass (bermudagrass; 13 to 15 days) | Bermudagrass plant response rating (bermudagrass; [7]) | Deadnettle plant response rating (deadnettle; Postemergence, 31 g ai/ha) | Plant response rating, Deadnettle (deadnettle; [8]) | Plant response rating, Deadnettle (deadnettle; [9]) | further results |
| --- | --- | --- | --- | --- | --- | --- | --- | --- | --- | --- | --- | --- | --- | --- | --- | --- | --- | --- |
| CCOc1cc(C(=O)NCC(F)(F)F)nn1Cc1ccnc(OC(F)F)c1 [Compound 128] | 90 | 90 | 100 | 90 | 100 | 90 |  |  |  |  |  |  |  |  |  |  |  |  |
| CCCc1cc(C(=O)NC2CC2)nn1Cc1ccnc(OC(F)F)c1 [Compound 205] | 90 |  | 90 | 70 | 100 |  |  |  |  |  |  |  |  |  |  |  |  | Kochia plant response rating (kochia [1]; [5]): 90; Italian Ryegrass plant response rating (Italian ryegrass; [5]): 70 |
| Cc1cc(C(=O)NCC(F)(F)F)nn1Cc1ccnc(C(F)(F)F)c1 [Compound 74] |  |  |  |  |  |  | 95 | 0 | 5 | 50 | 98 | 50 | 90 | 98 | 10 | 80 | 70 | Deadnettle plant response rating (deadnettle; postemergence, 62 g ai/ha): 60 |
| CCc1cc(C(=O)NOC(C)C)nn1Cc1ccnc(OC(F)F)c1 [Compound 126] | 100 | 100 | 90 | 90 | 100 | 90 |  |  |  |  |  |  |  |  |  |  |  |  |
| CCONC(=O)c1cc(CC)n(Cc2cccc(OC(F)(F)F)c2)n1 [Compound 72] |  |  |  |  |  |  | 90 | 5 | 45 | 80 | 100 | 85 | 98 | 98 | 40 | 70 | 40 | Deadnettle plant response rating (deadnettle; postemergence, 62 g ai/ha): 40 |
| CCCNC(=O)c1cc(OCC)n(Cc2ccnc(OC(F)F)c2)n1 [Compound 136] | 90 | 90 | 100 | 80 | 90 | 80 |  |  |  |  |  |  |  |  |  |  |  |  |
| CCc1cc(C(=O)NOC(C)C)nn1Cc1cccc(OC(F)(F)F)c1 [Compound 70] |  |  |  |  |  |  | 80 | 20 | 35 | 40 | 100 | 98 | 98 | 100 | 25 | 90 | 70 | Plant response rating, Deadnettle (deadnettle; postemergence, 62 g ai/ha, scale 0 to 100, 0 no effect, 100 complete control): 70 |
| CCCc1cc(C(=O)NCC(F)(F)F)nn1Cc1ccnc(OC(F)F)c1 [Compound 127] | 100 | 90 | 90 | 90 | 90 | 80 |  |  |  |  |  |  |  |  |  |  |  |  |
| CCc1cc(-c2ccc(C(F)(F)F)cc2)nn1Cc1ccnc(C(F)(F)F)c1 [Compound 110] |  |  |  |  |  |  |  |  |  |  |  |  |  |  |  |  |  | Plant response rating, Kochia (kochia [2]; [10]): 70; Plant response rating, Kochia (kochia [2]; [11]): 80; Plant response rating, Kochia (kochia [2]; [12]): 90; Plant response rating, Kochia (kochia [2]; [13]): 20; Plant response rating, Kochia (kochia [2]; [14]): 25; Plant response rating, Soybean (soybean; [10]): 15; Plant response rating, Soybean (soybean; [11]): 0; Plant response rating, Soybean (soybean; [13]): 0; Plant response rating, Arrowleaf Sida (arrowleaf sida; [10]): 65; Plant response rating, Arrowleaf Sida (arrowleaf sida; [11]): 80; Plant response rating, Arrowleaf Sida (arrowleaf sida; [12]): 90; Plant response rating, Arrowleaf Sida (arrowleaf sida; [13]): 35; Plant response rating, Arrowleaf Sida (arrowleaf sida; [14]): 65 |
| CCc1cc(C(=O)NCC(F)(F)F)nn1Cc1ccnc(Br)c1 [Compound 224] |  |  |  |  |  |  |  |  |  |  |  |  |  |  |  |  |  | Plant response rating, Kochia (kochia [2]; [11]): 90; Plant response rating, Kochia (kochia [2]; [12]): 100; Plant response rating, Kochia (kochia [2]; [15]): 100; Plant response rating, Soybean (soybean; [11]): 25; Plant response rating, Soybean (soybean; [12]): 20; Plant response rating, Soybean (soybean; [15]): 50; Plant response rating, Arrowleaf Sida (arrowleaf sida; [11]): 35; Plant response rating, Arrowleaf Sida (arrowleaf sida; [12]): 30; Plant response rating, Arrowleaf Sida (arrowleaf sida; [15]): 35 |
